Experimental data reported in patent US11044932B1, “Composition of (D)-beta-hydroxybutyric acid, (D)-beta-hydroxyvaleric acid, and (D)-1,3 butanediol” (priority 2020, dated 2021).

Tests used:
[1] = administration of D-BHB, D-BHV and D-1,3BD in various ratios to human subjects at rest: circulating ketones and ketotic efficiency; type: in vivo; details: for Max change in mMol/L (increase in circulating ketone level): 10 g dose, three human subjects at rest; for 1 hour ketotic efficiency: 1 hour post-administration; for 1 hour ketotic efficiency / 2 hours ketotic efficiency: subject at rest; for 2 hours ketotic efficiency: 2 hours post-administration; for prolonged rise of blood ketone levels / sustained ketonemia: based on measured plasma levels of FIG. 1, subject at rest; for ketotic efficiency, rank in words: both 1 and 2 hours post-administration
Method: The administration of examples presented herein result in an increase in the circulating level of ketones in a human subject at rest that is greater than would result from the administration of (D)-β-hydroxybutyrate or (D)-1,3 butanediol alone over a duration of, for example, 120 minutes. Preferred examples include administration of a combination of D-BHB, D-BHV, and D-1,3BD in a therapeutically effective amount such that the rate change of circulating ketones in the blood of a human subject at rest is faster than the administration of an equivalent amount of either D-BHB or D-1,3BD administered alone. In one example, this includes the administration of a composition including a mixture of 43.2%% D-BHB, 1.8% D-BHV and 55% D-1,3BD. In another example, this includes the administration of a composition including a mixture of 52.8% DBHB, 2.2% D-BHV, and 45% D-1,3BD. In another example, this includes the administration of at composition including a mixture of 62.4% D-BHB, 2.6% D-BHV, and 35% D-1,3BD.
Examples include using a composition including D-BHB, D-BHV, and D-1,3BD in a subject at rest. The ketotic efficiency represents the net elevation of circulating ketones a ketone supplement affects over time in an individual. Ketotic efficiency may be represented as:
[formula] where mMol/L is the concentration of circulating 3-hydroxybutyrate in the blood, g is the total dose of the combined D-BHB, D-BHV, and D-1,3,BD in grams, kg is the mass of the individual in kilograms, and t is an increment of time in minutes.
While this example pertains to a fasted subject at rest, the relative utility of blended vs pure constituents has also been observed in fed and active subjects.
As illustrated by the examples of FIG. 1, these exemplary compositions can advantageously elevate circulating ketones by approximately two times greater than other known compositions. Such a composition can sustain ketonemia for longer than either D-BHB or D-1,3BD can when ingested alone by a subject of a given weight as shown by the 100% line (i.e., contains D-BHB, but not D-1,3BD) and the 0% line (i.e., contains only D-1,3BD, but not D-BHB).
As shown in the following table, the increase in circulating ketone level with a 10 g dose in three human subjects at rest was maximal at between 45-55% D-BHB in the tested compositions. […]

[2] = similar to lemon juice; cited from earlier work

| SMILES | Max change in mMol/L (increase in circulating ketone level) [1] [mmol/L] | 1 hour ketotic efficiency [1] [kg·mmol·min/g/L] | 2 hours ketotic efficiency [1] [kg·mmol·min/g/L] | prolonged rise of blood ketone levels / sustained ketonemia [1] | ketotic efficiency, rank in words [1] | pH [2] |
| --- | --- | --- | --- | --- | --- | --- |
| CC(O)CCO (centres unmarked) [0%, (D)-1,3 butanediol] | 0.8 | 266 | 462 | does not cause a prolonged rise of blood ketone levels | lowest efficiency | – |
| CC(O)CC(=O)O (stereo not drawn) [100%, (D)-β-hydroxybutyric acid] | 0.9 | 335 | 566 | A similar result | lowest efficiency | 2.5 |
